According to the supplement of paper PMC6045584:
± gives the standard deviation of the averaged measurements.

What follows are test systems tested with NC1(c2ccc(-c3nc4ccn5c(=O)[nH]nc5c4cc3-c3ccccc3)cc2)CCC1 [MK2206] (assay: surviving fraction relative to DMSO-only wells; higher = less growth inhibition). Conditions: 0.5 nM; exposure time: 5 days.
How it was run: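 Lines were retained only if, across three screens, replicate Pearson r was >0.7 and median Z' was >0.3. Viability was measured as CellTiter-Glo luminescence and reported as surviving fraction relative to the median of DMSO-only wells. Readings followed 10 minutes at room temperature, after log-phase tumour cells seeded at 250–500 per well in 384-well plates had been exposed, from 24 hours after seeding, continuously for five days to inhibitors at 0.5, 1, 5, 10, 50, 100, 500 and 1000 nM.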

Test System	surviving fraction
MDAMB436 BREAST	1.02 ± 0.14
MDAMB453 BREAST	1.1 ± 0.093
MDAMB468 BREAST	1.07 ± 0.052
MFM223 BREAST	1.14 ± 0.047
MG63 BONE	0.987 ± 0.01
MHM BONE	0.981 ± 0.021
NCIH441 LUNG	1.08 ± 0.034
NOS1 BONE	0.882 ± 0.11
NY BONE	1.03 ± 0.035
OS25HAL BONE	0.998 ± 0.042
OSHN BONE	1.08 ± 0.018
PCI30 HEADNECK	0.999 ± 0.021
RDES SOFT TISSUE	1.14 ± 0.04
S68 BREAST	1.15 ± 0.26
SAOS2 BONE	1.08 ± 0.055
SCC36 HEADNECK	1.07 ± 0.037
SCC47 HEADNECK	1.03 ± 0.051
SCC90 HEADNECK	0.954 ± 0.027
SG27 HEADNECK	1.15 ± 0.065

Test System	surviving fraction
SG28 HEADNECK	1 ± 0.1
SG31 HEADNECK	1.24 ± 0.29
SG32 HEADNECK	1.04 ± 0.053
SG43 HEADNECK	1.19 ± 0.62
SIHA CERVIX	0.989 ± 0.041
SJSA1 BONE	0.752 ± 0.027
SKBR3 BREAST	0.983 ± 0.076
SNU475 LIVER	0.973 ± 0.037
SUM44 BREAST	1.09 ± 0.17
SUM149 BREAST	1.04 ± 0.049
SUM149.B1*.S BREAST	1.08 ± 0.057
SUM159 BREAST	1.08 ± 0.04
SYO1 SYNOVIAL	0.95 ± 0.012
T47D BREAST	1.04 ± 0.03
U2OS BONE	0.992 ± 0.017
VCAP PROSTATE	0.898 ± 0.12
VP229 BREAST	1.1 ± 0.13
YAMATO SYNOVIAL	1.13 ± 0.13
ZR751 BREAST	0.962 ± 0.026

Same assay, conditions: 1 nM; exposure time: 5 days

Test System	surviving fraction
MDAMB361 BREAST	0.922 ± 0.076
MDAMB436 BREAST	0.932 ± 0.087
MDAMB453 BREAST	1.08 ± 0.039
MDAMB468 BREAST	1.1 ± 0.076
MFM223 BREAST	1.12 ± 0.014
MG63 BONE	1.06 ± 0.049
MHM BONE	0.9797 ± 0.0065
NCIH441 LUNG	1.18 ± 0.017
NOS1 BONE	0.883 ± 0.088
NY BONE	1.06 ± 0.024
OS25HAL BONE	1.07 ± 0.028
OSHN BONE	1.12 ± 0.034
PCI30 HEADNECK	1.03 ± 0.13
RDES SOFT TISSUE	1.27 ± 0.13
S68 BREAST	0.874 ± 0.16
SAOS2 BONE	1.13 ± 0.041
SCC36 HEADNECK	1.11 ± 0.085
SCC47 HEADNECK	1.06 ± 0.047
SCC90 HEADNECK	1.01 ± 0.048
SG27 HEADNECK	1.17 ± 0.066

Test System	surviving fraction
SG28 HEADNECK	1.16 ± 0.013
SG31 HEADNECK	0.996 ± 0.022
SG32 HEADNECK	0.975 ± 0.3
SG43 HEADNECK	0.92 ± 0.097
SIHA CERVIX	1 ± 0.043
SJSA1 BONE	0.825 ± 0.033
SKBR3 BREAST	1.01 ± 0.16
SNU475 LIVER	1.04 ± 0.053
SUM44 BREAST	1.19 ± 0.28
SUM149 BREAST	1.05 ± 0.038
SUM149.B1*.S BREAST	1.14 ± 0.093
SUM159 BREAST	1.093 ± 0.0081
SYO1 SYNOVIAL	0.975 ± 0.05
T47D BREAST	1.06 ± 0.064
U2OS BONE	1.03 ± 0.051
VCAP PROSTATE	0.848 ± 0.073
VP229 BREAST	1.19 ± 0.16
YAMATO SYNOVIAL	1.12 ± 0.023
ZR751 BREAST	1.04 ± 0.088

Same assay, conditions: 5 nM; exposure time: 5 days

Test System	surviving fraction
MDAMB361 BREAST	0.826 ± 0.1
MDAMB436 BREAST	0.954 ± 0.023
MDAMB453 BREAST	1.11 ± 0.041
MDAMB468 BREAST	1.1 ± 0.067
MFM223 BREAST	1.06 ± 0.038
MG63 BONE	1.04 ± 0.03
MHM BONE	1.01 ± 0.024
NCIH441 LUNG	1.11 ± 0.034
NOS1 BONE	1.01 ± 0.1
NY BONE	1.05 ± 0.012
OS25HAL BONE	1.07 ± 0.024
OSHN BONE	1.08 ± 0.021
PCI30 HEADNECK	1.01 ± 0.027
RDES SOFT TISSUE	1.22 ± 0.074
S68 BREAST	1.15 ± 0.22
SAOS2 BONE	1.15 ± 0.021
SCC36 HEADNECK	1.1 ± 0.084
SCC47 HEADNECK	1.14 ± 0.065
SCC90 HEADNECK	0.973 ± 0.073
SG27 HEADNECK	1.07 ± 0.056

Test System	surviving fraction
SG28 HEADNECK	1.02 ± 0.14
SG31 HEADNECK	1.1 ± 0.28
SG32 HEADNECK	1.08 ± 0.24
SG43 HEADNECK	0.894 ± 0.2
SIHA CERVIX	1.02 ± 0.092
SJSA1 BONE	0.907 ± 0.028
SKBR3 BREAST	0.942 ± 0.085
SNU475 LIVER	1.01 ± 0.027
SUM44 BREAST	1.14 ± 0.24
SUM149 BREAST	1.02 ± 0.058
SUM149.B1*.S BREAST	1.12 ± 0.034
SUM159 BREAST	1.07 ± 0.024
SYO1 SYNOVIAL	0.953 ± 0.022
T47D BREAST	1 ± 0.036
U2OS BONE	1.03 ± 0.027
VCAP PROSTATE	0.928 ± 0.069
VP229 BREAST	1.19 ± 0.14
YAMATO SYNOVIAL	1.16 ± 0.1
ZR751 BREAST	0.678 ± 0.065

Same assay, conditions: 10 nM; exposure time: 5 days

Test System	surviving fraction
MDAMB361 BREAST	0.841 ± 0.031
MDAMB436 BREAST	0.957 ± 0.068
MDAMB453 BREAST	1.15 ± 0.035
MDAMB468 BREAST	1.09 ± 0.052
MFM223 BREAST	1.14 ± 0.16
MG63 BONE	1.09 ± 0.047
MHM BONE	1.05 ± 0.027
NCIH441 LUNG	1.08 ± 0.11
NOS1 BONE	1.04 ± 0.11
NY BONE	1.05 ± 0.033
OS25HAL BONE	1.02 ± 0.026
OSHN BONE	1.12 ± 0.052
PCI30 HEADNECK	1.07 ± 0.035
RDES SOFT TISSUE	1.13 ± 0.032
S68 BREAST	1.14 ± 0.17
SAOS2 BONE	1.14 ± 0.044
SCC36 HEADNECK	1.18 ± 0.053
SCC47 HEADNECK	1.16 ± 0.046
SCC90 HEADNECK	1.12 ± 0.093
SG27 HEADNECK	1.05 ± 0.089

Test System	surviving fraction
SG28 HEADNECK	1.05 ± 0.12
SG31 HEADNECK	1.19 ± 0.2
SG32 HEADNECK	1.17 ± 0.19
SG43 HEADNECK	0.741 ± 0.14
SIHA CERVIX	1.04 ± 0.062
SJSA1 BONE	0.804 ± 0.032
SKBR3 BREAST	0.911 ± 0.032
SNU475 LIVER	0.983 ± 0.043
SUM44 BREAST	1.22 ± 0.31
SUM149 BREAST	0.997 ± 0.098
SUM149.B1*.S BREAST	1.09 ± 0.076
SUM159 BREAST	1.11 ± 0.03
SYO1 SYNOVIAL	1 ± 0.028
T47D BREAST	0.945 ± 0.027
U2OS BONE	1.05 ± 0.026
VCAP PROSTATE	0.936 ± 0.054
VP229 BREAST	1.18 ± 0.15
YAMATO SYNOVIAL	1.08 ± 0.063
ZR751 BREAST	0.734 ± 0.064
